# Measured values from paper PMC6934184, “Selective DNA-PKcs inhibition extends the therapeutic index of localized radiotherapy and chemotherapy” (The Journal of Clinical Investigation, 2019).
# Target: T1, TBK1 (Homo sapiens, UniProt Q9UHD2)
# T1 construct: purchased Thermo Fisher Scientific (Life Technologies) SelectScreen
# Assay: SelectScreen Z'LYTE
# Type: biochemical
# Outline: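 Percent values come from Thermo SelectScreen profiling of NU5455, combining activity and binding assays. CSF1R was run in Z'LYTE format at Km app ATP, and CAMK1 in Adapta format with ATP listed at 10.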
# T1 sequence (Q9UHD2 whole entry): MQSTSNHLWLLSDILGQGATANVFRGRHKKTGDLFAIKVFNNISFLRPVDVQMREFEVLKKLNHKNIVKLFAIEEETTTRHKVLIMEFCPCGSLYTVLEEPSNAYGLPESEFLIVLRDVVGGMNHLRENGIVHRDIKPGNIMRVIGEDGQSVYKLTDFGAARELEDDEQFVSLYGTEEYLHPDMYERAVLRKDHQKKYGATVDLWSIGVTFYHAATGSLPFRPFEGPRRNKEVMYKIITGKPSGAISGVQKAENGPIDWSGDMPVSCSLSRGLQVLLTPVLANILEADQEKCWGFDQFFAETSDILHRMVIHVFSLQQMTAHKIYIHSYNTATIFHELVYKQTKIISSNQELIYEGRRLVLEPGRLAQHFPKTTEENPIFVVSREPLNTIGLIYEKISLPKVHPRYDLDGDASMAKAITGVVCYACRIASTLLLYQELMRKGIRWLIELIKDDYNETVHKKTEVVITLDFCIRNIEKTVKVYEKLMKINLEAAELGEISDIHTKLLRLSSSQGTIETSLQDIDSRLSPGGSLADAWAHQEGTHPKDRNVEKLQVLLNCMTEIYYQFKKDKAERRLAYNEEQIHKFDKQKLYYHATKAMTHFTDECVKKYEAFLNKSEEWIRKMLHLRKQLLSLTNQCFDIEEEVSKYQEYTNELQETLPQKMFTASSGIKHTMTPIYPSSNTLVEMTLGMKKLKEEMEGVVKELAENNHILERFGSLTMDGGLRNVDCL
smiles,measurement,value
CN(C(=O)CN1CCOCC1)c1ccc2sc3c(-c4cccc5c(=O)cc(N6CC7CCC(C6)O7)oc45)cccc3c2c1 [NU5455],inhibition at 1 µM,2%
